Results taken from patent publication US20160339036A1, “Compound with Anti-Cancer Properties” (Velgene 3 Limited, priority 2013, published 2016).

Columns and labels:
[1] = test system: tumour cell lines of Table 1 (CCRF-CEM, K562, MCF7, PANC1, B16, HT168M1, HCT116, PC3); assay: Proliferation assay (MTT) on tumour cell lines; assay type: cell-based, human; mouse (B16); details: 0.6, 2 and 6 μM, evaluated 24, 48 and 72 hours after treatment, One-Way ANOVA Post Hoc Scheffe Test, FIG. 4
Description: The first step was to examine the effect of T0504-7238 on the growth of tumour cells of the cell lines listed below in Table I. Our aim was to select the most therapy-sensitive cell lines as a preparation for the in vivo experiments.
Tumour cells were maintained in RPMI 1640 medium supplemented with 10% FBS (Sigma) and 1% penicillin/streptomycin solution (5,000 units penicillin and 5 mg streptomycin/ml) (Sigma) at 37° C. in a 5% CO2 atmosphere and used at confluence or at minimum 10^6 cells/ml density.
Single cell suspensions of different cell lines (Table 1) were put into 96-well microtiter plates for setting up 18-24 parallel samples per experimental group at 4×10^3 cell/well. The appropriate amount of T0504-7238 was suspended in a 3:1 DMSO: Solutol solution, which was then further diluted to the final concentration without the risk of precipitation. […]
Within each group samples were evaluated 24, 48 and 72 hours after treatment. […] After discarding of the culture medium plates were dried at room temperature, formazan crystals dissolved in dimethyl sulfoxide (100 μl/well) and the absorbance (OD) was measured at 570 nm using a microplate reader (Bio-Rad 550).
(§1) The results of our measurements were evaluated using One-Way ANOVA Post Hoc Scheffe Test.

HT168M1 human melanoma = assay: HT168M1 human melanoma, subcutaneous implantation in CB17/scid mice; assay type: in vivo, CB17/scid female mice
Excerpt: (§2) Both the environment of the experimental animals and the execution of the actual experiments followed the up to date legislation and ethical regulations of Hungary. […] The experimental animals were derived from the The Jackson Laboratory (610 Main Street Bar Harbor, Me. 04609, USA). All personnel involved with the in vivo experiments are qualified to perform the described experiments.
2,5×10^5 human melanoma (HT168M1) cells, from the in vitro cell line, were subcutaneously (s.c.) implanted into the dorsal region of adult CB17/scid female mice with congenital immunodeficiency under diethyl ether narcosis. The animals were randomised, divided into two groups (11 treated, 11 control) and labelled with individual ear-markings on the 10th post-implantation day. From that day onwards, the treated group was intraperitoneally (i.p) treated with T0504-7238 (2 mg/kg-3:1 DMSO:Solutol solution) once every second day. The control group was also treated with identical frequency to the treatment group i.p. injecting appropriately diluted 3:1 DMSO:Solutol solution. The animals were weighed weekly and individual changes were recorded using the ear-marking system. The tumour diameter was also individually recorded from the earliest palpable stage using a pair of compasses (caliper). Tumour volume was estimated usin the π/6×a×b^2 formula, where ‘a’ is the longer and ‘b’ is the shorter diameter. The experiment was terminated on the 41st post-implantation day—the animals were sacrificed using Nembutal. The evaluation was based on the weight of the primary tumour.
as §1

[2] = test system: PC3 human prostate carcinoma; assay: PC3 human prostate tumour, implantation into prostate of CB17/scid mice; assay type: in vivo, CB17/scid male mice; details: 2 mg/kg i.p. once every second day from 13th post-implantation day, evaluated on 31st day
Excerpt: as §2
The abdominal wall of CB17/scid male mice was opened at the level of the prostate under Nembutal anaesthesia (75 mg/kg). A single cell suspension (2.15×10^5 cell/20 μl) of the PC3 human prostate carcinoma cell line was implanted into the prostate using micro syringe (Hamilton). The abdominal was closed with a single layer of surgical thread (3/0 Vicryl), the skin was closed with outwards turning wound edges using surgical clips (Michel Wound Clips, 7.5 mm). After the wound healing completed, the animals were randomised, divided into two groups (9 treated, 9 control) and labelled with individual ear-markings on the 13th post-implantation day. From that day onwards, the treated group was intraperitoneally (i.p) treated with T0504-7238 (2 mg/kg-3:1 DMSO:Solutol solution) once every second day. […] The animals were weighed weekly and individual changes were recorded using the ear-marking system. […]
as §1

SMILES: O=C1C(Cl)=C(N2CCOCC2)C(=O)c2ccc(S(=O)(=O)N3CCOCC3)cc21 [T0504-7238]
- growth of all tumour cell lines [1]: dose-dependently, significantly decreased the growth
- detectable tumor entirely necrotic, share of cases in treated group (HT168M1 human melanoma; 2 mg/kg i.p. once every second day from 10th post-implantation day, evaluated on 41st day): 20%
- weight of the tumor, treated vs control group (HT168M1 human melanoma; 2 mg/kg i.p. once every second day from 10th post-implantation day, evaluated on 41st day, FIG. 5): significantly lower (p=0.026)
- average body weight of treated animals vs controls at the time of evaluation (HT168M1 human melanoma; 2 mg/kg i.p. once every second day, 41st post-implantation day): this difference was not significant
- body weight, treated vs control animals at the time of evaluation ([2]; FIG. 6): no significant difference
- average weight of the primary tumour, treated vs control group ([2]; FIG. 7): lower in the treated group
